{
  "source": "paper PMC3598976",
  "about": "“Potent in vivo anti-malarial activity and representative snapshot pharmacokinetic evaluation of artemisinin-quinoline hybrids” (Malaria Journal, 2013)",
  "key": {"D10 P. falciparum strain": {"system": "D10 P. falciparum strain", "set-up": "method as in PMID 21316959", "conditions": "previously determined, read-out: IC50 (nM) ± SD D10; cited from earlier work"}, "Dd2 P. falciparum strain": {"system": "Dd2 P. falciparum strain", "set-up": "method as in PMID 21316959", "conditions": "previously determined, read-out: IC50 (nM) ± SD Dd2; cited from earlier work"}, "[1]": {"set-up": "method as in PMID 17267300", "conditions": "cited from earlier work"}, "[2]": {"conditions": "cited from earlier work"}, "[3]": {"system": "3D7 strain of P. falciparum", "test": "In vitro anti-malarial activity against 3D7 strain ([3H]-hypoxanthine incorporation)", "assay_type": "cell-based, Plasmodium falciparum", "conditions": "read-out: IC50 (nM) ± SD 3D7", "description": "The 3D7 strain of P. falciparum was asexually cultured in human blood in complete medium (RPMI 1640 supplemented with 25 mM Hepes, pH 7.4) and 10% AB+ human serum. Drug effects were measured in microtitre plates on suspensions of asynchronous P. falciparum infected red blood cells (1.5% final haematocrit, 0.6% parasitaemia) according to Desjardins et al.[18]. Drugs, previously dissolved in DMSO, were diluted in culture medium so that the final DMSO concentration never exceeded 0.25%. […] Analyses of dose-effect curves were performed with the Graphpad Prism analytical software. […] Values are the means of at least two independent experiments (different cell cultures, different drug dilution stocks), each performed in duplicates."}, "[4]": {"system": "Plasmodium vinckei (BY strain)", "test": "In vivo anti-malarial activity against P. vinckei in infected mice, four-day treatment", "conditions": "for ED50: Plasmodium vinckei, in Mus musculus, 120 h"}, "[5]": {"system": "Plasmodium vinckei (BY strain)", "conditions": "mouse, in vivo"}},
  "note": "Where “and” joins values, the source holds several entries; their conditions need not be identical. Equal entries are not always repeated. Where two headings read alike, the source gives them in different places.",
  "data": [
    {"smiles": "C[C@H]1[C@@H](O)O[C@@H]2O[C@@]3(C)CC[C@H]4[C@H](C)CC[C@@H]1[C@@]24OO3", "note": "[DHA, Dihydroartemisinin]", "values": [
      {"measurement": "IC50", "setting": "D10 P. falciparum strain", "value": "5.1 ± 0.6", "unit": "nM"},
      {"measurement": "IC50", "setting": "Dd2 P. falciparum strain", "value": "2.1 ± 0.3", "unit": "nM"},
      {"measurement": "AUC", "setting": "[1]", "value": "8748 ± 2016", "unit": "ng·min/mL"},
      {"measurement": "Clearance rate", "setting": "[1]", "value": 1190, "unit": "mL/min/kg"},
      {"measurement": "Oral volume of distribution", "setting": "[1]", "value": "353.5 ± 194.9", "unit": "L/kg"},
      {"measurement": "Maximum concentration", "setting": "[1]; dose of 10 mg/kg", "value": "142.2 ± 21.1", "unit": "ng/mL"},
      {"measurement": "Time to maximum concentration", "setting": "[1]; dose of 10 mg/kg", "value": "48 ± 6", "unit": "min"},
      {"measurement": "Half-life ip", "setting": "[2]", "value": 25, "unit": "min"}
    ]},
    {"smiles": "CCN(CC)CCCC(C)Nc1ccnc2cc(Cl)ccc12", "note": "(stereo not shown) [CQ, Chloroquine]", "values": [
      {"measurement": "IC50", "setting": "[3]; Plasmodium falciparum, 3D7, 48 h", "value": "20 ± 1.6", "unit": "nM"},
      {"measurement": "IC50", "setting": "D10 P. falciparum strain", "value": "21.5 ± 6.7", "unit": "nM"},
      {"measurement": "IC50", "setting": "Dd2 P. falciparum strain", "value": "158 ± 52.7", "unit": "nM"}
    ]},
    {"smiles": "C[C@@H]1CCC2[C@@H](C)[C@@H](OCCNCCCNc3ccnc4cc(Cl)ccc34)O[C@@H]3O[C@@]4(C)CCC1[C@@]23OO4", "note": "(stereo partly shown) [Hybrid 3]", "values": [
      {"measurement": "IC50", "setting": "[3]; 3D7 strain, 48 h incubation", "value": "5.2 ± 0.7", "unit": "nM"},
      {"measurement": "IC50", "setting": "[3]; Plasmodium falciparum, 3D7, 48 h, 3D7 strain, 48 h incubation", "value": 5.15, "unit": "nM"},
      {"measurement": "IC50", "setting": "D10 P. falciparum strain", "value": "14.3 ± 2.7", "unit": "nM"},
      {"measurement": "IC50", "setting": "Dd2 P. falciparum strain", "value": "19.8 ± 0.3", "unit": "nM"},
      {"measurement": "ED50", "setting": "[4]; ip, read-out: ED50 ip", "value": "< 0.8", "unit": "mg/kg"},
      {"measurement": "ED50", "setting": "[4]; po, read-out: ED50 per os", "value": 13, "unit": "mg/kg"},
      {"measurement": "Survival rate", "setting": "[4]; at the same dosages (15 mg/kg ip, 50 mg/kg per os)", "value": 66, "unit": "%"},
      {"measurement": "ED50ip/ ED50per os ratio (oral absorption)", "setting": "[4]; in DMSO", "value": "< 6", "unit": "%"},
      {"measurement": "Parasitaemia on day 5, % of the control", "setting": "[4]; ip 7.5 mg/kg D1-D4", "value": 0.02, "unit": "%"},
      {"measurement": "Recrudescence", "setting": "[4]; ip 7.5 mg/kg D1-D4", "value": "Recrudescence occurred"},
      {"measurement": "Parasitemia (%) D5", "setting": "[4]; ip 7.5 mg/kg D1-D4, Mean ± SEM", "value": 0.02, "unit": "%"},
      {"measurement": "Parasitaemia on day 5, % of the control", "setting": "[4]; ip 15 mg/kg D1-D4", "value": 0.01, "unit": "%"},
      {"measurement": "Recrudescence", "setting": "[4]; ip 15 mg/kg D1-D4", "value": "No recrudescence was observed for two of the three mice"},
      {"measurement": "Survival beyond day 20", "setting": "[4]; ip 15 mg/kg D1-D4", "value": 66, "unit": "%"},
      {"measurement": "Mortality (day of death)", "setting": "[4]; ip 15 mg/kg D1-D4, individual mice", "value": 8},
      {"measurement": "Dose giving complete cure / clearance of parasitaemia, ip", "setting": "[4]; ip, four days, long-term monitoring", "value": "not obtained"},
      {"measurement": "Recrudescence", "setting": "[4]; per os 25 mg/kg D1-D4", "value": "Delayed recrudescence"},
      {"measurement": "Parasitaemia on day 5, % of the control", "setting": "[4]; per os 50 mg/kg D1-D4", "value": 0.01, "unit": "%"},
      {"measurement": "Recrudescence", "setting": "[4]; per os 50 mg/kg D1-D4", "value": "2 of the 3 mice showed no recrudescence"},
      {"measurement": "Survival beyond day 17", "setting": "[4]; per os 50 mg/kg D1-D4", "value": 66, "unit": "%"},
      {"measurement": "Dose giving complete cure / clearance of parasitaemia, per os", "setting": "[4]; per os, four days, long-term monitoring", "value": "not obtained"},
      {"measurement": "Parasitemia (%) D5", "setting": "[4]; po 25 mg/kg D1-D4, Mean ± SEM, 25 mg/kg", "value": 0.02, "unit": "%"},
      {"measurement": "Parasitemia (%) D5", "setting": "[4]; po 25 mg/kg D1-D4, Mean ± SEM, listed as hybrid 3, 25 mg/kg", "value": "less than 10%"},
      {"measurement": "Mortality (day of death)", "setting": "[4]; po 25 mg/kg D1-D4, individual mice", "value": 15},
      {"measurement": "Parasitemia (%) D5", "setting": "[4]; po 50 mg/kg D1-D4, Mean ± SEM", "value": 0.01, "unit": "%"},
      {"measurement": "Mortality (day of death)", "setting": "[4]; po 50 mg/kg D1-D4, individual mice", "value": 18},
      {"measurement": "Parasitemia (%) D17", "setting": "[4]; po 50 mg/kg D1-D4, individual mice, 50 mg/kg", "value": "no visualized parasitaemia and 51%"}
    ]},
    {"smiles": "C[C@H]1[C@H](OC(=O)CCC(=O)O)O[C@@H]2O[C@@]3(C)CC[C@H]4[C@H](C)CC[C@@H]1[C@@]24OO3", "note": "[Artesunate, reference compound]", "values": [
      {"measurement": "Dose giving complete cure / clearance of parasitaemia, per os", "setting": "[5]", "value": 80, "unit": "mg/kg"},
      {"measurement": "ED50", "setting": "[4]; ip, read-out: ED50 ip", "value": "< 1", "unit": "mg/kg"},
      {"measurement": "ED50", "setting": "[4]; po, read-out: ED50 per os", "value": 1.8, "unit": "mg/kg"},
      {"measurement": "Reduction of parasitaemia at day 5", "setting": "[4]; ip 1 mg/kg/day, four days", "value": 70, "unit": "%"},
      {"measurement": "Parasitaemia remaining after treatment", "setting": "[4]; ip 30 mg/kg/day, four days", "value": 3, "unit": "%"},
      {"measurement": "Survival", "setting": "[4]; ip 30 mg/kg/day, four days", "value": 50, "unit": "%"},
      {"measurement": "Curative dose relative to ED50", "setting": "[4]; ip and per os", "value": "about 40 times"},
      {"measurement": "Decrease of parasitaemia", "setting": "[4]; per os 4 mg/kg/day, four days", "value": 93, "unit": "%"}
    ]}
  ]
}
